In patent US5705649A, “Protein staining compositions and methods” (Promega Corporation, priority 1995, dated 1998):
Values belong to the molecule of their own block, whether it stands above or below them.

Key:
[1] = Spectral analyses of Coomassie Blue R and Promega Green 1, 2, 3; format: physicochemical
Method: The three solutions of Promega Green 1, 2, and 3, from examples 1, 2 and 3 respectively, were diluted approximately 500 fold into a 1:1 solution of methanol:water. The spectra of the resulting solutions and of a 12 μg/ml solution of Coomassie Blue R (in 1:1 methanol:water) were recorded from 700 to 340 nm versus 1:1 methanol:water. […] All of the derivatives gave essentially identical spectra; however, the maximal absorbance of the diluted Promega Green i was about twice that seen for the other derivatives. The derivatives had two peak absorptions in the region of the spectrum scanned, a major peak at around 630 nm and a second peak at around 440 nm. The following absorbances were recorded at the peaks near 630 nm for the three Promega Green dye solutions (diluted 1:500 in 1:1 methanol:water): […]

[2] = test system: Promega Mid-Range Molecular Weight Markers; assay: Detection of proteins during SDS-PAGE electrophoresis (dye in cathode buffer); conditions: 10% SDS-PAGE, dye in cathode buffer, white plastic card behind gel
Source text: Solutions for the formation and electrophoresis of proteins were made according to the instructions given in Experiments in Gene Fusions, Silhavy, Berman, Enquist, Cold Spring Harbor Laboratory Press, Cold Spring Harbor, N.Y. with the following changes:
a) The SDS concentration in the upper and lower gel buffer components were reduced to result in a 0.05% final SDS concentration in the gel. Thus, the composition of 4× upper gel buffer was 0.5M Tris-HCl, pH 6.8, 0.2 % (w/v) sodium dodecylsulfate (SDS) and the composition of 4× lower gel buffer was 1.5M Tris-HCl, pHS.8, 0.2 % (w/v) SDS.
b) The SDS concentration in the electrophoretic (electrode) buffer was reduced to 0.04% final concentration. Thus, 4× electrode (anode or cathode) buffer was made by dissolving 60 g Tris base, 288 g glycine, and 8 g SDS dissolved in water and then diluting with water to 5 liters. Another name sometimes used for "electrode" buffer is "running" buffer.
c) The SDS concentration in the 2× sample buffer was reduced to 1% final SDS concentration. Thus, 2× sample buffer was made by mixing 0.5 ml of betamercaptoethanol, 0.25 ml of 0.1% (w/v) bromophenol blue, 1 ml of 10 % (w/v) SDS, 3 ml of water, and 5.3 ml of 2× glycerol buffer. 2× glycerol buffer is made by mixing 12.5 ml of 4× upper gel buffer and 20 ml of glycerol and diluting the resulting solution to 60 ml with water. Another name sometimes used for "sample" buffer is "loading" buffer.
d) Electrophoresis was performed using a BIO-RAD miniprotein II electrophoresis apparatus and gels were poured such that i cm of space was present between the bottom of the loading wells and the separating gel.
In other electrophoresis experiments reported in this application, the buffers used were as described above in this example. In some cases, as in this example, where preparation of a solution of dye in 150 ml of cathode (or electrode) buffer is specified, an amount of stock solution of a dye was first added to 150 ml of cathode buffer and then 125 ml of the resulting solution was used to fill the cathode buffer chamber (which holds 125 ml) in the electrophoresis apparatus. In other cases, where addition of stock solution of dye to the cathode buffer is specified without reference to the volume of cathode buffer or with reference to such volume being "125 ml," the stock solution was added directly to 125 ml of cathode buffer already in the cathode buffer chamber.
The samples used were prepared with Promega Mid-Range Molecular Weight Markers solution (Promega Corp., Madison, Wis., USA, Catalog No. V5231) (referred to hereinafter as "Promega Mid-Range [Molecular Weight] Markers or Standards") diluted into Sample Buffer. […]

[3] = test system: Promega Mid-Range Molecular Weight Markers; assay: Enhancement of staining of proteins in SDS-PAGE gels in 5% acetic acid; conditions: 5% acetic acid
Method: The gels described above were placed in 5% acetic acid following the termination of the electrophoretic separation. Within one to two minutes the gel developed a light green background but the protein bands dramatically darkened to a green color. […] Again, the color of the background darkened to a greater degree when greater concentrations of dye were used.
The gels above (from Example 7) were placed in 5% acetic acid following termination of the electrophoretic separation. Within 1-2 minutes, all the gels turned light green and the color of the stained bands intensified such that all proteins were visible--even in the lane containing 0.25 μg protein/band.
The gels above (Example 9) were placed in 5% acetic acid following termination of the electrophoretic separation. Within 1-2 minutes, all the gels turned light green and the color of the stained bands intensified such that all proteins were visible--even in the lanes containing 0.25 μg protein/band.

[4] = test system: Promega Mid Range Molecular Weight Standards; assay: Post-electrophoretic detection of protein with purified dansyl derivatives
Method: Samples of the eluates from purification of the derivatives were diluted 20-fold with ethanol and the absorption of the resulting solutions from 400 to 220 nm was measured. The absorption of the solutions at 328 nm was used as an indication of the concentration of the derivative in the staining studies in Example 27.
Several SDS-PAGE minigels were made as described in Experiments with Gene Fusions, Silhavy, Berman, Enquist, supra, using the SDS concentrations described by the authors. Samples of Promega Mid Range Molecular Weight Standards were diluted into the loading solution described in the reference above to produce solutions containing 200, 100, 50, 25, and 12.5 ng of each protein species in 10 μl of solution. These solutions were loaded onto the gels and the samples were fractionated in the gels by application of 10 mA per gel until the tracking dye for the samples reached the bottom of the gel. The gels were then rinsed 1 min in distilled water, 15 min in 10% trichloracetic acid (w/v), and then for 15 min in 10% methanol (v/v). The gel segments, approximately 5×6 cm containing the fractionated standard, were then transferred to a 2% ethanol solution (50 ml) containing 0.05 OD328 -equivalent of each of the dansyl derivatives (see Example 26).
The gel segments were returned to their respective staining solutions and were incubated overnight. The following morning, all of the gel segments were again visualized on the transilluminator and photographed as described above. […] In general, relatively equivalent staining of bands was obtained as determined by the strength of the fluorescent signal observed for the various fractionated species.

[5] = test system: Promega Mid Range Molecular Weight Standards; assay: Detection of fractionated protein in SDS-PAGE gels using dansyl derivatives made in acetone; conditions: for lowest protein per band visible: 2% (v/v) eluate in 10% methanol
Method: Several 15-well, SDS-PAGE minigels were poured as described in Example 27 and loaded with Promega Mid Range Molecular Weight Standards diluted as described in Example 27 to provide samples containing 1000, 300, 100, 50, 25, 12.5, and 6.25ng of each protein per band in separate lanes of the gel. The samples were fractionated by application of 20 mA per gel until the tracking dye reached the bottom of the gel. All the gels were placed in 10% trichloroacetic acid for 5 min and then incubated for 10 min in 10% (v/v) methanol. The gels were then incubated in a 10% methanol solution containing 2% (v/v) of the derivative eluates (dissolved in 50 ml ethanol) described in Example 28. The gels were transferred to a transilluminator and both visualized and photographed after two hours of staining. The following observations were made. Only the lanes containing 1000 and 300ng of protein per band were visible in the gel incubated with the n-butyl dansyl derivative. The lanes containing the 1000, 300, 100, 50, 25ng per band were visible in the gel incubated with the n-hexyl derivative as were some of the bands in the 12.5 ng per band lane.
After overnight incubation in the stain solutions, the gels were re-observed and rephotographed.
The gels were then placed in 1% acetic acid to remove any unbound stain and rephotographed after three hours of incubation in this solution at room temperature.

[6] = test system: Promega Mid Range Molecular Weight standard; assay: Post-electrophoretic staining with fluorescein isothiocyanate derivatives; conditions: for lowest protein per band with visible bands / standards detected: 1:500 in 10% methanol, 1 hour, destained 30 min; for lowest protein per band stained: after overnight in 10% methanol
Method: Six 12% gels were made as described in Example 27 and were loaded with diluted Promega Mid Range Molecular Weight standard to produce lanes containing, per band, 1000, 500, 200, 100, 75, 50, 25 and 10 ng of protein. The gel was run as described in Example 27 and then the gels were incubated 15 min in 50% methanol. The gels were then transferred to individual 50 ml staining solutions, which were stock derivatized dye solutions of Example 36 diluted 1:500 with 10% methanol. After one hour, these solutions were removed and destaining with 50 ml of 10% methanol was performed. After an additional 30 min. the gels were visualized on a transilluminator and photographed. Protein bands were visible for the gels stained with amino fluorescein and p-amino benzoic acid fluorescein derivatives, however the bands were seen only in the lanes containing 1000, 500, and 200 ng of protein per band. […] At this point, the gel stained with the ethyl p-amino benzoyl derivative allowed detection of all of the proteins in the lanes containing as little as 75 ng of protein per band.
The gels were then placed in 50 ml of 10% methanol and allowed to incubate overnight at room temperature. After overnight incubation, the gels were visualized on a transilluminator and photographed. […] The gel stained with the amino derivative (reaction 5) had faded to the point where protein species were only detected in the 1000 and 500 ng protein per band lanes. However, in these lanes, only particular protein species were stained, as described above.

Absorbance at the peak near 630 nm ([1]; diluted 1:500 in 1:1 methanol:water): 0.83
SMILES: CCCCCCCCCCCC(=O)N(c1ccc(OCC)cc1)c1ccc(C(=C2C=CC(=[N+](CC)Cc3cccc(S(=O)(=O)[O-])c3)C=C2)c2ccc(N(CC)Cc3cccc(S(=O)(=O)O)c3)cc2)cc1 [Promega Green 3]
lowest protein amount per band visible while the gel was running [2]: 1.0 µg | lowest protein amount per band visible after enhancement ([3]; 1-2 minutes): 0.25 µg | staining after overnight incubation ([3]; overnight): darker background color

SMILES: CN(C)c1cccc2c(S(N)(=O)=O)cccc12 [control dansyl amine, reference compound]
visibility of protein bands ([4]; overnight staining): no bands were seen

SMILES: CCCCCCCCCCNS(=O)(=O)c1cccc2c(N(C)C)cccc12 [decyl derivative]
lowest protein per band visible ([5]; two hours of staining): 25 ng | protein per band at which most of the protein species were visible ([5]; after 1% acetic acid, three hours): 6.25 ng | protein per band at which at least some of the bands could be visualized ([5]; overnight staining): 12.5 ng

SMILES: CCOC(=O)c1ccc(NS(=O)(=O)c2cccc3c(N(C)C)cccc23)cc1
lowest protein per band visible ([5]; two hours of staining): 25 ng

SMILES: CCOC(=O)c1ccc(NC(=S)Nc2ccc(-c3c4ccc(=O)cc-4oc4cc(O)ccc34)c(C(=O)O)c2)cc1 [ethyl p-amino benzoic acid fluorescein]
lowest protein per band with visible bands [6]: 75 ng | lowest protein per band stained [6]: 200 ng

SMILES: CCCCCCCCNS(=O)(=O)c1cccc2c(N(C)C)cccc12 [octyl dansyl derivative]
staining quality compared to the amino or butyl derivatives [4]: much better stains compared to the amino or butyl derivatives | visibility of protein bands ([4]; 15 min staining, 0.05 OD328-equivalent in 2% ethanol, 200-12.5 ng per band): easily visualized in the photograph of the gel | change in staining of bovine serum albumin and ovalbumin ([4]; overnight staining): somewhat fainter after the overnight incubation | visibility of protein bands ([4]; overnight staining): easily visible | staining result relative to n-hexyl derivative ([5]; two hours of staining): Essentially equivalent results, but with lower fluorescence intensities

maximal absorbance wavelength (major peak) ([1]; 1:1 methanol:water, 700 to 340 nm): around 590 nm
SMILES: CCOc1ccc(Nc2ccc(C(=C3C=CC(=[N+](CC)Cc4cccc(S(=O)(=O)[O-])c4)C=C3)c3ccc(N(CC)Cc4cccc(S(=O)(=O)O)c4)cc3)cc2)cc1 [Coomassie Blue R, reference compound]

SMILES: CCCCCCNS(=O)(=O)c1cccc2c(N(C)C)cccc12 [n-hexyl derivative]
lowest protein per band visible ([5]; two hours of staining): 25 ng | protein per band at which some of the bands were visible ([5]; two hours of staining): 12.5 ng

SMILES: CCCCNS(=O)(=O)c1cccc2c(N(C)C)cccc12 [n-butyl dansyl derivative]
lowest protein per band visible ([5]; two hours of staining): 300 ng

SMILES: NC(=S)Nc1ccc(-c2c3ccc(=O)cc-3oc3cc(O)ccc23)c(C(=O)O)c1 [reference compound]
lowest protein per band with visible bands [6]: 200 ng | standards detected [6]: 97, 66, 55 and 40 kDa | lowest protein per band stained [6]: 500 ng

SMILES: O=C(O)c1cc(NC(=S)Nc2ccc(NC(=S)Nc3ccc(-c4c5ccc(=O)cc-5oc5cc(O)ccc45)c(C(=O)O)c3)cc2)ccc1-c1c2ccc(=O)cc-2oc2cc(O)ccc12 [difluorescein phenylenediamine]
lowest protein per band stained [6]: 200 ng

SMILES: O=C(O)c1ccc(NC(=S)Nc2ccc(-c3c4ccc(=O)cc-4oc4cc(O)ccc34)c(C(=O)O)c2)cc1 [p-amino benzoic acid fluorescein]
lowest protein per band with visible bands [6]: 200 ng | standards detected [6]: 97, 55, 40 and 31 kDa | lowest protein per band stained [6]: 200 ng
